Read-outs that look alike come from different tables or passages of the source.
How the values were obtained:
Septoria tritici [1] = test: In vivo preventive test on Septoria tritici (leaf spot on wheat), Examples E, Q3 and R5; conditions: Zymoseptoria tritici, 576 h
Alternaria brassicae = test: In vivo preventive test on Alternaria brassicae (leaf spot on radish), Examples A and R1; conditions: Alternaria brassicae, 144 h
Pyricularia oryzae = test: whole plant or invertebrate; type: in vivo; conditions: 192 h, read-out: efficacy
Alternaria solani = test: In vivo preventive Alternaria test (tomatoes), Example H; conditions: 72 h, 100 ppm of active ingredient, preventive spray, evaluated 3 days after inoculation, read-out: efficacy
[2] = Measurement of LogP values by HPLC on reversed phase columns (EEC directive 79/831 Annex V.A8); type: physicochemical; conditions: method [a]: LC-UV, acidic range, 0.1% formic acid in water and acetonitrile as eluent; Table 1
Description: Measurement of Log P values was performed as outlined above.

Fusarium culmorum [3] = test: In vitro test for the calculation of the ED50-value with microorganisms, Example Q4: Fusarium culmorum; type: cell-based; conditions: liquid culture, spore suspension, 4 to 7 days incubation, spectrometric measurement of mycelium growth
Description: • Solvent: Dimethyl sulfoxide • Culture medium: 14.6 g anhydrous D-glucose (VWR), 7.1 g Mycological Peptone (Oxoid), 1.4 g granulated Yeast Extract (Merck), QSP liter • Inoculum: Spore suspension
Fungicides were solubilized in DMSO and the solution used to prepare the required range of concentrations. The final concentration of DMSO used in the assay was ≤1%.
A spore suspension was prepared and diluted to the desired spore density.
Fungicides were evaluated for their ability to inhibit spore germination and mycelium growth in liquid culture assay. The compounds were added in the desired concentration to the culture medium with spores. After 4 to 7 days incubation, fungi-toxicity of compounds was determined by spectrometric measurement of mycelium growth. Inhibition of fungal growth was determined by comparing the absorbance values in wells containing the fungicides with the absorbance in control wells without fungicides.

Leptosphaeria nodorum [4] = test: In vitro test for the calculation of the ED50-value with microorganisms, Example Q4: Leptosphaeria nodorum; type: cell-based; conditions: liquid culture, spore suspension, 4 to 7 days incubation, spectrometric measurement of mycelium growth
Phakopsora pachyrhizi = test: In vivo preventive Phakopsora test (soybeans), Example I; conditions: 168 h, 100 ppm of active ingredient, preventive spray, evaluated 7 days after inoculation, read-out: efficacy
Puccinia recondita = test: In vivo preventive test on Puccinia recondita (brown rust on wheat), Examples C and R3; conditions: Puccinia recondita, 264 h, preventive spray, evaluated 11 days after inoculation
Septoria tritici [5] = test: In vitro test for the calculation of the ED50-value with microorganisms, Example Q4: Septoria tritici; type: cell-based; conditions: liquid culture, spore suspension, 4 to 7 days incubation, spectrometric measurement of mycelium growth
Botrytis cinerea [6] = test: In vitro test for the calculation of the ED50-value with microorganisms, Example Q4: Botrytis cinerea; type: cell-based; conditions: liquid culture, spore suspension, 4 to 7 days incubation, spectrometric measurement of mycelium growth
[7] = test system: Blumeria graminis fsp. hordei; test: In vivo preventive Blumeria test (barley), Example K; conditions: 168 h, 500 ppm of active ingredient, preventive spray, evaluated 7 days after inoculation, read-out: efficacy
Source text: After the spray coating has been dried, the plants are dusted with spores of Blumeria graminis fsp. hordei.

Venturia inaequalis = test: In vivo preventive Venturia test (apples), Example J; conditions: 240 h, read-out: efficacy
Description: After the spray coating has dried on, the plants are inoculated with an aqueous conidia suspension of the causal agent of apple scab (Venturia inaequalis) and then remain for 1 day in an incubation cabinet at approximately 20° C. and a relative atmospheric humidity of 100%.
The plants are then placed in a greenhouse at approximately 21° C. and a relative atmospheric humidity of approximately 90%.
The test is evaluated 10 days after the inoculation.

Sphaerotheca fuliginea = test: In vivo preventive test on Sphaerotheca fuliginea (powdery mildew on cucurbits), Examples F and R6; conditions: Podosphaera fuliginea, 360 h, preventive spray, evaluated 15 days after inoculation
Uromyces appendiculatus = test: In vivo preventive test on Uromyces appendiculatus (bean rust), Examples G and R7; conditions: 264 h, preventive spray, evaluated 11 days after inoculation
Pyrenophora teres = test: In vivo preventive test on Pyrenophora teres (net blotch on barley), Examples D, Q2 and R4; conditions: Pyrenophora teres, 336 h
Botrytis cinerea [8] = test: In vivo preventive test on Botrytis cinerea (grey mould) on gherkin, Examples B, Q1 and R2; conditions: for pest or weed control at 500 ppm / pest or weed control at 100 ppm: Botrytis cinerea; for pest or weed control at 100 ppm: Example Q1, rate of application 100 ppm
Leptosphaeria nodorum [9] = test: In vivo preventive Leptosphaeria nodorum test (wheat), Example N; conditions: Parastagonospora nodorum, 192 h, 500 ppm of active ingredient, preventive spray, evaluated 8 days after inoculation, read-out: efficacy
Source text: After the spray coating has been dried, the plants are sprayed with a spore suspension of Leptosphaeria nodorum.

Fusarium culmorum [10] = test: In vivo preventive Fusarium culmorum test (wheat), Example L; conditions: 120 h, 500 ppm of active ingredient, preventive spray, evaluated 5 days after inoculation, read-out: efficacy
Description: After the spray coating has been dried, the plants are slightly injured by using a sandblast and afterwards they are sprayed with a conidia suspension of Fusarium culmorum.
The test is evaluated 5 days after the inoculation.

[11] = test system: Fusarium nivale (var. majus); test: In vivo preventive Fusarium nivale (var. majus) test (wheat), Example O; conditions: Microdochium nivale, 120 h, 500 ppm of active ingredient, preventive spray, evaluated 5 days after inoculation, read-out: efficacy
Source text: After the spray coating has been dried, the plants are slightly injured by using a sandblast and afterwards they are sprayed with a conidia suspension of Fusarium nivale (var. majus).

Fusarium graminearum = test: whole plant or invertebrate; type: in vivo; conditions: in Hordeum vulgare, 120 h, read-out: efficacy
[12] = 500 ppm of active ingredient, wheat, preventive spray, evaluated 24 days after inoculation, read-out: efficacy
[13] = Example Q3, rate of application 100 ppm, wheat, read-out: Efficacy in %
[14] = Example Q3, rate of application 500 ppm, wheat, read-out: Efficacy in %
[15] = Example R5, wheat, preventive spray, 100 ppm, evaluated 24 days after inoculation, read-out: Efficacy in %
[16] = Example R5, wheat, preventive spray, 500 ppm, evaluated 24 days after inoculation, read-out: Efficacy in %
[17] = 500 ppm of active ingredient, wheat, read-out: efficacy
[18] = Example R3, wheat, read-out: Efficacy in %
[19] = Example R3, wheat, 500 ppm, read-out: Efficacy in %
[20] = 500 ppm of active ingredient, gherkin, read-out: efficacy
[21] = Example R6, gherkin, read-out: Efficacy in %
[22] = Example R6, gherkin, 500 ppm, read-out: Efficacy in %
[23] = 500 ppm of active ingredient, bean, read-out: efficacy
[24] = Example R7, bean, read-out: Efficacy in %
[25] = Example R7, bean, 500 ppm, read-out: Efficacy in %
[26] = 500 ppm of active ingredient, preventive spray, evaluated 14 days after inoculation, read-out: efficacy
[27] = Example Q2, rate of application 100 ppm, read-out: Efficacy in %
[28] = Example Q2, rate of application 500 ppm, read-out: Efficacy in %
[29] = Example R4, rate of application 100 ppm, read-out: Efficacy in %
[30] = Example R4, rate of application 500 ppm, read-out: Efficacy in %
[31] = 500 ppm of active ingredient, preventive spray, evaluated 4 to 5 days after inoculation, read-out: efficacy
[32] = Example Q1, rate of application 500 ppm, read-out: Efficacy in %
[33] = Example R2, rate of application 100 ppm
[34] = Example R2, rate of application 500 ppm

Row | SMILES | pest or weed control at 500 ppm (Septoria tritici [1]; [12]) [%] | pest or weed control at 100 ppm (Septoria tritici [1]; [13]) [%] | pest or weed control at 500 ppm (Septoria tritici [1]; [14]) [%] | pest or weed control at 100 ppm (Septoria tritici [1]; [15]) [%] | pest or weed control at 500 ppm (Septoria tritici [1]; [16]) [%] | pest or weed control at 100 ppm (Alternaria solani) [%] | Fusarium culmorum ED50 value in ppm (Fusarium culmorum [3]) [ppm] | Leptosphaeria nodorum ED50 value in ppm (Leptosphaeria nodorum [4]) [ppm] | pest or weed control at 100 ppm (Phakopsora pachyrhizi) [%] | pest or weed control at 500 ppm (Puccinia recondita; [17]) [%] | pest or weed control at 100 ppm (Puccinia recondita; [18]) [%] | pest or weed control at 500 ppm (Puccinia recondita; [19]) [%] | Septoria tritici ED50 value in ppm (Septoria tritici [5]) [ppm] | Botrytis cinerea ED50 value in ppm (Botrytis cinerea [6]) [ppm] | pest or weed control at 500 ppm [7] [%] | pest or weed control at 100 ppm (Venturia inaequalis) [%] | pest or weed control at 500 ppm (Sphaerotheca fuliginea; [20]) [%] | pest or weed control at 100 ppm (Sphaerotheca fuliginea; [21]) [%] | pest or weed control at 500 ppm (Sphaerotheca fuliginea; [22]) [%] | pest or weed control at 500 ppm (Uromyces appendiculatus; [23]) [%] | other results
1 | OC(Cc1ccc(Cl)cc1F)(Cn1cncc1Cl)C1(Cl)CC1 (centres unmarked) [Example I-27, 2-(1-chlorocyclopropyl)-1-(4-chloro-2-fluorophenyl)-3-(5-chloro-1H-imidazol-1-yl)propan-2-ol] | 90 to 100 | 81 | 94 | 94 | 81 | 90 to 100 | <0.006 | <0.006 | 90 to 100 | 90 to 100 | 89 | 98 | <0.006 | 0.02 | 90 to 100 | 90 to 100 | 90 to 100 | 100 | 100 | 90 to 100 | pest or weed control at 500 ppm (Alternaria brassicae; 500 ppm of active ingredient, preventive spray, evaluated 6 days after inoculation, read-out: efficacy): 90 to 100%; pest or weed control at 100 ppm (Alternaria brassicae; Example R1, rate of application 100 ppm, read-out: Efficacy in %): 50%; pest or weed control at 500 ppm (Alternaria brassicae; Example R1, rate of application 500 ppm, read-out: Efficacy in %): 92%; pest or weed control at 500 ppm (Pyricularia oryzae): 90 to 100%; chromatographic logP [2]: 2.48; pest or weed control at 100 ppm (Uromyces appendiculatus; [24]): 20%; pest or weed control at 500 ppm (Uromyces appendiculatus; [25]): 100%; pest or weed control at 500 ppm (Pyrenophora teres; [26]): 90 to 100%; pest or weed control at 100 ppm (Pyrenophora teres; [27]): 94%; pest or weed control at 500 ppm (Pyrenophora teres; [28]): 98%; pest or weed control at 100 ppm (Pyrenophora teres; [29]): 94%; pest or weed control at 500 ppm (Pyrenophora teres; [30]): 98%; pest or weed control at 500 ppm (Botrytis cinerea [8]; [31]): 90 to 100%; pest or weed control at 100 ppm (Botrytis cinerea [8]; read-out: Efficacy in %): 99%; pest or weed control at 500 ppm (Botrytis cinerea [8]; [32]): 100%; Efficacy in % (Botrytis cinerea [8]; [33]): 99%; Efficacy in % (Botrytis cinerea [8]; [34]): 100%; pest or weed control at 500 ppm (Leptosphaeria nodorum [9]): 90 to 100%
2 | N#Cc1cncn1CC(O)(Cc1ccc(Cl)cc1F)C1(Cl)CC1 (centres unmarked) [Example I-29] | 90 to 100 | 100 | 100 | 100 | 100 | 90 to 100 | 0.01 | 0.02 | 90 to 100 | 90 to 100 | 94 | 98 | <0.006 | 0.26 | 90 to 100 | 90 to 100 | 90 to 100 | 100 | 100 | 90 to 100 | pest or weed control at 500 ppm (Fusarium culmorum [10]): 80 to 89%; pest or weed control at 500 ppm [11]: 90 to 100%; pest or weed control at 500 ppm (Fusarium graminearum): 90 to 100%; pest or weed control at 100 ppm (Uromyces appendiculatus; [24]): 100%; pest or weed control at 500 ppm (Uromyces appendiculatus; [25]): 100%; pest or weed control at 500 ppm (Pyrenophora teres; [26]): 80 to 89%; pest or weed control at 100 ppm (Pyrenophora teres; [27]): 83%; pest or weed control at 500 ppm (Pyrenophora teres; [28]): 89%; pest or weed control at 100 ppm (Pyrenophora teres; [29]): 83%; pest or weed control at 500 ppm (Pyrenophora teres; [30]): 89%; pest or weed control at 500 ppm (Botrytis cinerea [8]; [31]): 90 to 100%; pest or weed control at 100 ppm (Botrytis cinerea [8]; read-out: Efficacy in %): 86%; pest or weed control at 500 ppm (Botrytis cinerea [8]; [32]): 99%; Efficacy in % (Botrytis cinerea [8]; [33]): 86%; Efficacy in % (Botrytis cinerea [8]; [34]): 99%; pest or weed control at 500 ppm (Leptosphaeria nodorum [9]): 90 to 100%

From patent publication US10231453B2, “5-substituted imidazole derivatives” (BAYER CROPSCIENCE AKTIENGESELLSCHAFT, priority 2015, dated 2019)
